The results in this text go back to patent US8278343B2, “Pyrrolidines” (Pfizer Inc., priority 2008, dated 2012).

The target in this assay is T1, recombinant human EP-2 receptor (Homo sapiens, UniProt P43116).
T1 construct: stably transfected with full length cDNA encoding human Prostaglandin E2; expressed in transfected cells
T1 sequence (P43116 whole entry): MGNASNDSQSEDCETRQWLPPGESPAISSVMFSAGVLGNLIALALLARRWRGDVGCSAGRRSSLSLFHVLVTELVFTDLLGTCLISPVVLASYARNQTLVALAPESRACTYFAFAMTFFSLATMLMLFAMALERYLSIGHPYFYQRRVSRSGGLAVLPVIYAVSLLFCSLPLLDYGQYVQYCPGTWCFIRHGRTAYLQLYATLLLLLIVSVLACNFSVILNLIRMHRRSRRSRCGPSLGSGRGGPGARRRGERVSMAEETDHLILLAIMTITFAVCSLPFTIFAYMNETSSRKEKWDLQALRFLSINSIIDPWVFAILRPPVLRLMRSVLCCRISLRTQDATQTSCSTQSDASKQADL
The assay can be described thus: In vitro antagonist potency against recombinant human prostaglandin E2 (EP-2) receptor in CHO cells (cAMP, Protocol 1). Conditions: CHO cells expressing recombinant human EP-2 receptor, stimulated with 5 nM PGE2; cAMP readout; Ki by Cheng-Prusoff equation; read-out: EP2 Ki. It is filed as cell-based. On the procedure: 1.0 Measurement of In Vitro Antagonist Potency (IC50) of Compounds Against Recombinant Human Prostaglandin E2 Receptor in CHO Cells
The prostaglandin E2 (EP-2) receptor is Gs coupled and agonism of the receptor by PGE2 results in activation of intracellular adenylate cyclase enzymes that synthesise the second messenger signalling molecule, adenosine 3′,5′-cyclic monophosphate (cAMP). CHO cells expressing the recombinant human EP-2 receptor are stimulated with PGE2 (5 nM) equivalent to approximately […] values to give the maximal cAMP signal. Decreases in cAMP levels following treatment of stimulated recombinant EP-2 cells with potential antagonist compounds were measured and potency (IC50) calculated as follows.
A Chinese hamster ovary (CHO) cell line stably transfected with full length cDNA encoding human Prostaglandin E2 was established using standard molecular biology methods. Test compounds were dissolved in dimethyl sulphoxide (DMSO) at 4 mM. 11 point half log unit increment dilution series of test compound were prepared in DMSO then diluted 1 in 40 in a buffer comprised of phosphate buffered saline (PBS) and 0.05% pluronic F-127 surfactant. Freshly cultured cells at 80-90% confluence were harvested and re-suspended in 90% growth media/10% DMSO. The cells were frozen using a planar freezer and stored in frozen aliquots in cryovials in liquid nitrogen until the day of the experiment. A vial of cells was defrosted in a 37° C. water bath for 2 min, then transferred to 10 ml of Dulbecco's Modified Eagle's Medium (DMEM). The cells were then centrifuged for 5 min at 1000 g and the pellet re-suspended at 1,000,000 cells/ml in DMEM. 5,000 cells (5 ul) were added to 5 ul of the compound dilution series in a 384 well assay plate and pre-incubated for 30 min at 37° C. 5 ul of agonist (15 nM PGE2 in PBS to give 5 nM FAC) was added and plates further incubated for 90 min at 37° C. The relative cAMP concentration in each well was then measured using a β-galactosidase enzyme fragment complementation method purchased in kit form as the Discoverx cAMP II kit from GE Healthcare, UK. […] Sigmoidal curves were fitted to plots of log10 inhibitor concentration vs percent effect. IC50 estimates were determined as the concentration of test compound giving an effect half way between the bottom and top asymptotes of the sigmoidal dose response curve. Each experiment included an IC50 determination for the literature compound as a standard to track assay consistency and allow fair comparison between values obtained in different experiments. The EC50 of PGE2 is used in combination with the ligand concentration in the assay to determine Ki values for antagonist dose responses using the Cheng-Prusoff equation. Consequently an agonist dose response curve is carried out for each experiment using the same incubation as the antagonist plate.
The Ki is the dissociation constant of the complex between target and ligand, obtained from inhibition or displacement. Turning to `O=C(Nc1ccc(Cl)cc1)N1CCC(COc2ccc(-c3ccc(F)cc3)cc2)(C(=O)O)C1` (single isomer, unassigned) [Example 101], the inhibition constant Ki is 3.59 nM.
The same measure for `O=C(C1CCC1)N1CCC(COc2ccc(-c3ccc(F)cc3)cc2)(C(=O)O)C1` (single isomer, unassigned) [Example 80]: 344 nM.
Regarding `CCOc1ccccc1C(=O)N1CCC(COc2ccc(-c3ncc(Cl)cn3)cc2)(C(=O)O)C1` (single isomer, unassigned) [Example 56], the inhibition constant Ki amounted to 466 nM.
Regarding `COc1ccccc1C(=O)N1CCC(COc2cnc(-c3ccc(Cl)cc3)cn2)(C(=O)O)C1` (single isomer, unassigned) [Example 59], the Ki was found to be 98.1 nM.
`O=C(c1ccc(Cl)cc1)N1CCC(COc2ccc(-c3ncc(Cl)cn3)cc2)(C(=O)O)C1` (single isomer, unassigned) [Example 30]: the Ki worked out at 0.461 nM.
